Tests used:
[1] = target: T1, BRD4 Bromodomain 2 (BRD4 BD2) (Homo sapiens, UniProt O60885); test: AlphaScreen binding assay, BRD4 BD2; conditions: His-tagged BRD4 BD2 100 nM, biotinylated H4 (1-21) K5/8/12/16 tetra-acetylated peptide 100 nM, compounds listed under IC50 range headings
T1 construct: 333-460 were cloned, expressed, and purified to homogeneity
Outline: (§1)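 Compound dilution series were mixed with His-tagged BRD4 bromodomain and biotinylated tetra-acetylated H4 (1-21) peptide at pH 7.3 (BD1 and peptide at 50 nM, BD2 and peptide at 100 nM). Donor and acceptor beads were then added, and plates were equilibrated at least 1 h before reading. IC50 values were fitted with a four-parameter logistic model.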

[2] = test system: acute myelocytic leukemia (AML) cell line MV4-11; test: Oncology cell growth assay (3-day proliferation, CellTiter-Glo); assay type: cell-based; conditions: Homo sapiens, MV4-11, 72 h, MV4-11 cells, 3000 cells/well, compounds listed under IC50 range headings, read-out: MV411 IC50 (gIC50, inhibition of proliferation)
Outline: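 Compounds were serially diluted 3-fold in DMSO, giving final well concentrations from 10 down to 0.0045 μM. MV4-11 cells were then seeded at 3000 cells/well in RPMI 1640 with 10% FBS and incubated 72 hours. CellTiter-Glo signal was measured and gIC50 obtained by four-parameter logistic regression.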

[3] = target: T2, BRD4 Bromodomain 1 (BRD4 BD1) (Homo sapiens, UniProt O60885); test: AlphaScreen binding assay, BRD4 BD1; conditions: His-tagged BRD4 BD1 50 nM, biotinylated H4 (1-21) K5/8/12/16 tetra-acetylated peptide 50 nM, compounds listed under IC50 range headings
T2 construct: 44-168 and BRD4 BD2
Outline: as §1

| Compound | IC50 [1] [nM] | IC50 [2] [nM] | IC50 [3] [nM] |
| --- | --- | --- | --- |
| COC(=O)N1c2ccc(-c3cnn(CCO)c3)c(Oc3ncc(F)cn3)c2CC[C@@H]1C [I-576] | ≥ 500 | > 1000 | 1000 to 10000 |
| COC(=O)N1c2ccc(-c3cnn(CCO)c3)c(Oc3ncc(C)cn3)c2CC[C@@H]1C [I-584] | 50 to 500 | 500 to 1000 | 1000 to 10000 |
| COC(=O)N1c2ccc(-c3cnn(C4CC4)c3)c(Oc3ncc(C)cn3)c2CC[C@@H]1C [I-585] | 50 to 500 | < 500 | 100 to 1000 |
| COC(=O)N1c2ccc(-c3cnn(CCS(C)(=O)=O)c3)c(Oc3ncccc3C(N)=O)c2CC[C@@H]1C [I-586] | 50 to 500 | > 1000 | 1000 to 10000 |
| COC(=O)N1c2ccc(-c3cnn(C4CC4)c3)c(Oc3ncccc3C(N)=O)c2CC[C@@H]1C [I-587] | 50 to 500 | 500 to 1000 | 1000 to 10000 |
| COC(=O)N1c2ccc(-c3cnn(CCS(C)(=O)=O)c3)c(Oc3ncc(C(F)(F)F)cc3F)c2CC[C@@H]1C [I-588] | 50 to 500 | > 1000 | 1000 to 10000 |
| COC(=O)N1c2ccc(-c3cnn(CC(C)(C)O)c3)c(Oc3ncc(C(F)(F)F)cc3F)c2CC[C@@H]1C [I-589] | 50 to 500 | 500 to 1000 | 1000 to 10000 |
| COC(=O)N1c2ccc(-c3cnn(CCO)c3)c(Oc3ncc(C(F)(F)F)cc3F)c2CC[C@@H]1C [I-590] | 50 to 500 | 500 to 1000 | 1000 to 10000 |
| COC(=O)N1c2ccc(-c3cnn(C4CC4)c3)c(Oc3ncc(C(F)(F)F)cc3F)c2CC[C@@H]1C [I-591] | 50 to 500 | 500 to 1000 | 1000 to 10000 |
| CC(=O)N1c2ccc(-c3cnn(C4CC4)c3)c(Oc3ccc(C(=O)N(C)C)cc3)c2CC[C@@H]1C [I-595] | 50 to 500 | < 500 | 100 to 1000 |
| COC(=O)N1c2ccc(-c3cnn(C4CCNCC4)c3)c(Oc3cccc(C#N)c3)c2CC[C@@H]1C [I-596] | 50 to 500 | < 500 | 1000 to 10000 |
| CC(=O)N1c2ccc(-c3cnn(C4CC4)c3)c(Oc3ccccc3)c2CCC1C (stereo not drawn) [I-597] | 50 to 500 | < 500 | 1000 to 10000 |
| CC1CCc2c(ccc(-c3cnn(C4CC4)c3)c2Oc2ccccc2)N1C(=O)C1CC1 (stereo not drawn) [I-598] | 50 to 500 | < 500 | 100 to 1000 |
| COC(=O)N1c2ccc(-c3cnn(C4CC4)c3)c(Oc3ccccc3)c2CCC1C (stereo not drawn) [I-599] | 50 to 500 | < 500 | 1000 to 10000 |
| CC(=O)N1c2ccc(-c3cnn(C4COC4)c3)c(OC[C@@H]3CCNC3)c2CC[C@@H]1C [I-600] | 50 to 500 | > 1000 | 100 to 1000 |
| CC(=O)N1c2ccc(-c3cnn(C4CC4)c3)c(OC[C@@H]3CCNC3)c2CC[C@@H]1C [I-602] | 50 to 500 | 500 to 1000 | 100 to 1000 |
| CC(=O)N1c2ccc(-c3cnn(C4CC4)c3)c(OC[C@H]3CCNC3)c2CC[C@@H]1C [I-603] | 50 to 500 | > 1000 | 100 to 1000 |

Results, then the compound that gave them:

| IC50 [1] [nM] | IC50 [2] [nM] | IC50 [3] [nM] | Compound |
| --- | --- | --- | --- |
| 50 to 500 | > 1000 | 1000 to 10000 | COC(=O)N1c2ccc(-c3cnn(CCS(C)(=O)=O)c3)c(Oc3ncc(C4CC4)cn3)c2CC[C@@H]1C [I-570] |
| 50 to 500 | 500 to 1000 | 1000 to 10000 | COC(=O)N1c2ccc(-c3cnn(CC(C)(C)O)c3)c(Oc3ncc(C4CC4)cn3)c2CC[C@@H]1C [I-571] |
| 50 to 500 | < 500 | 1000 to 10000 | COC(=O)N1c2ccc(-c3cnn(CCO)c3)c(Oc3ncc(C4CC4)cn3)c2CC[C@@H]1C [I-572] |
| 50 to 500 | 500 to 1000 | 1000 to 10000 | COC(=O)N1c2ccc(-c3cnn(C4CC4)c3)c(Oc3ncc(C4CC4)cn3)c2CC[C@@H]1C [I-573] |
| 50 to 500 | 500 to 1000 | 1000 to 10000 | COC(=O)N1c2ccc(-c3cnn(CCS(C)(=O)=O)c3)c(Oc3ncc(F)cn3)c2CC[C@@H]1C [I-574] |
| 50 to 500 | 500 to 1000 | 1000 to 10000 | COC(=O)N1c2ccc(-c3cnn(CC(C)(C)O)c3)c(Oc3ncc(F)cn3)c2CC[C@@H]1C [I-575] |
| 50 to 500 | < 500 | 1000 to 10000 | COC(=O)N1c2ccc(-c3cnn(C4CC4)c3)c(Oc3ncc(F)cn3)c2CC[C@@H]1C [I-577] |
| 50 to 500 | > 1000 | 1000 to 10000 | COC(=O)N1c2ccc(-c3cnn(CCS(C)(=O)=O)c3)c(Oc3ncc(C(F)(F)F)cn3)c2CC[C@@H]1C [I-578] |
| 50 to 500 | > 1000 | 1000 to 10000 | COC(=O)N1c2ccc(-c3cnn(CC(C)(C)O)c3)c(Oc3ncc(C(F)(F)F)cn3)c2CC[C@@H]1C [I-579] |
| 50 to 500 | 500 to 1000 | 1000 to 10000 | COC(=O)N1c2ccc(-c3cnn(CCO)c3)c(Oc3ncc(C(F)(F)F)cn3)c2CC[C@@H]1C [I-580] |
| 50 to 500 | > 1000 | 1000 to 10000 | COC(=O)N1c2ccc(-c3cnn(C4CC4)c3)c(Oc3ncc(C(F)(F)F)cn3)c2CC[C@@H]1C [I-581] |
| 50 to 500 | > 1000 | 1000 to 10000 | COC(=O)N1c2ccc(-c3cnn(CCS(C)(=O)=O)c3)c(Oc3ncc(C)cn3)c2CC[C@@H]1C [I-582] |
| 50 to 500 | < 500 | 1000 to 10000 | COC(=O)N1c2ccc(-c3cnn(CC(C)(C)O)c3)c(Oc3ncc(C)cn3)c2CC[C@@H]1C [I-583] |
| < 50 | < 500 | 100 to 1000 | CC(=O)N1c2ccc(-c3cnn(C4CC4)c3)c(Oc3ccccc3)c2CC[C@@H]1C [I-594] |
